The experiment deals with MLK3 (Homo sapiens (Human), UniProt Q16584). The experiment in a line: Radiometric filter plate MLK3 assay. The class given is biochemical. Particulars: read-out: MK3 IC50. The protocol:
After a twenty minute incubation, the reactions were washed through filter plates and read on a scintillation counter. Results are shown in Table 9 below, in which +++ indicates ≤0.1 μM, ++ indicates >0.1 μM and ≤1 μM, and + indicates >1 μM.

[1] abbreviates: 2 μM cold ATP (Km), 1 μM inactive MKK7b, twenty minute incubation.

Structures are written as SMILES. Read-outs that look alike come from different tables or passages of the source.

Sequence of MLK3 (Q16584 whole entry): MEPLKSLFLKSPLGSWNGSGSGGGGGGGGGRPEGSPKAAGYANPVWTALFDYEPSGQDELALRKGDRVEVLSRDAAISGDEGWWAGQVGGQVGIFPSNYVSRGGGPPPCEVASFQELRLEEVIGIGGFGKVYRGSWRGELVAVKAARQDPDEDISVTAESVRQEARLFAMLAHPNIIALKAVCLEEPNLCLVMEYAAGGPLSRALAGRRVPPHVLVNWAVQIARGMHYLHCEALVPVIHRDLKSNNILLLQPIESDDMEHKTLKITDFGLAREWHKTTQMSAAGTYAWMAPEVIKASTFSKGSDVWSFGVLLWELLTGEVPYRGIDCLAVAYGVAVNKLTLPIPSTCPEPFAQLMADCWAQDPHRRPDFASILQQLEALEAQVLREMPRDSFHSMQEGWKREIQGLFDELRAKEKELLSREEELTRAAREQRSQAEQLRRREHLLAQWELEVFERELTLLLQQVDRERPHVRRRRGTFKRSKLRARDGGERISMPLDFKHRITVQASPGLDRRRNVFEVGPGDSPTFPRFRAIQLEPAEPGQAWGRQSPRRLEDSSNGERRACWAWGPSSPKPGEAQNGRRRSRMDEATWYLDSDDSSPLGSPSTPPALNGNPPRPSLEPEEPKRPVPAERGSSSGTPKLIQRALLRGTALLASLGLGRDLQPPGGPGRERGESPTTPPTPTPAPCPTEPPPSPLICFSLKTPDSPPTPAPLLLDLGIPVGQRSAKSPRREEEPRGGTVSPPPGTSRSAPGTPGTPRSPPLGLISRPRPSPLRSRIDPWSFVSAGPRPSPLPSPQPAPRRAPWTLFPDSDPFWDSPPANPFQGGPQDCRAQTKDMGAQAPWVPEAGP

The term IC50 denotes the midpoint of a concentration-inhibition curve. With `COc1cc(-c2cnc3[nH]c(=O)n(-c4ccc5[nH]c(C)cc5c4)c3n2)cc(OC)c1OC` [Example 72, 1-(2-methyl-1H-indol-5-yl)-6-(3,4,5-trimethoxyphenyl)-1H-imidazo[4,5-b]pyrazin-2(3H)-one], the half-inhibitory concentration (IC50) under setting [1] was less than 100 nM.

For the compound `Cc1cc2cc(-n3c(=O)[nH]c4ncc(-c5cc(Cl)cc(Cl)c5)nc43)ccc2[nH]1` [Example 73, 6-(3,5-dichlorophenyl)-1-(2-methyl-1H-indol-5-yl)-1H-imidazo[4,5-b]pyrazin-2(3H)-one], under setting [1], the IC50 was greater than 1000 nM.

Turning to `COc1cc(-c2cnc3[nH]c(=O)n(C4CCCC4)c3n2)cc(OC)c1OC` [Example 74, 1-cyclopentyl-6-(3,4,5-trimethoxyphenyl)-1H-imidazo[4,5-b]pyrazin-2(3H)-one], under setting [1], the IC50 is less than 100 nM.

On to `COc1ccc(-c2cnc3[nH]c(=O)n(C4CCCC4)c3n2)cc1OC` [Example 75, 1-cyclopentyl-6-(3,4-dimethoxyphenyl)-1H-imidazo[4,5-b]pyrazin-2(3H)-one], for which the IC50 under setting [1] is greater than 1000 nM.

As to `O=c1[nH]c2ncc(-c3ccncc3)nc2n1C1CCCC1` [Example 77, 1-cyclopentyl-6-(pyridin-4-yl)-1H-imidazo[4,5-b]pyrazin-2(3H)-one], the IC50 under setting [1] is greater than 1000 nM.

As to `O=c1[nH]c2ncc(-c3cc(Cl)cc(Cl)c3)nc2n1CC1CC1` [Example 80, 1-(cyclopropylmethyl)-6-(3,5-dichlorophenyl)-1H-imidazo[4,5-b]pyrazin-2(3H)-one], under setting [1], the IC50 was greater than 1000 nM.

Regarding `O=c1[nH]c2ncc(-c3ccc(O)cc3)nc2n1CC1CC1` [Example 81, 1-(cyclopropylmethyl)-6-(4-hydroxyphenyl)-1H-imidazo[4,5-b]pyrazin-2(3H)-one], the IC50 under setting [1] was greater than 1000 nM.

Regarding `O=c1[nH]c2ncc(-c3ccncc3)nc2n1CC1CC1` [Example 82, 1-(cyclopropylmethyl)-6-(pyridin-4-yl)-1H-imidazo[4,5-b]pyrazin-2(3H)-one], under setting [1], the IC50 is greater than 1000 nM.

Regarding `COc1cc(-c2cnc3[nH]c(=O)n(-c4ccc5[nH]ncc5c4)c3n2)cc(OC)c1OC` [Example 83, 1-(1H-indazol-5-yl)-6-(3,4,5-trimethoxyphenyl)-1H-imidazo[4,5-b]pyrazin-2(3H)-one], the IC50 fell in the range of 100 to 1000 nM.

`Cc1cc2cc(-n3c(=O)[nH]c4ncc(-c5ccncc5)nc43)ccc2[nH]1` [Example 85, 1-(2-methyl-1H-indol-5-yl)-6-(pyridin-4-yl)-1H-imidazo[4,5-b]pyrazin-2(3H)-one]: under setting [1], the IC50 was greater than 1000 nM.

As to `O=c1[nH]c2ncc(-c3ccc(N4CCOCC4)cc3)nc2n1CC1CC1` [Example 86, 1-(cyclopropylmethyl)-6-(4-morpholinophenyl)-1H-imidazo[4,5-b]pyrazin-2(3H)-one], under setting [1], the IC50 is greater than 1000 nM.

In the case of `COc1ccc(-c2cnc3[nH]c(=O)n(-c4ccc5[nH]ncc5c4)c3n2)cc1OC` [Example 87, 6-(3,4-dimethoxyphenyl)-1-(1H-indazol-5-yl)-1H-imidazo[4,5-b]pyrazin-2(3H)-one], the IC50 under setting [1] is greater than 1000 nM.

`O=c1[nH]c2ncc(-c3ccncc3)nc2n1-c1ccc2[nH]ncc2c1` [Example 88, 1-(1H-indazol-5-yl)-6-(pyridin-4-yl)-1H-imidazo[4,5-b]pyrazin-2(3H)-one]: the IC50 under setting [1] was greater than 1000 nM.

In the case of `O=c1[nH]c2ncc(-c3ccc(N4CCOCC4)cc3)nc2n1-c1ccc2[nH]ncc2c1` [Example 89, 1-(1H-indazol-5-yl)-6-(4-morpholinophenyl)-1H-imidazo[4,5-b]pyrazin-2(3H)-one], under setting [1], the IC50 was greater than 1000 nM.

With `O=c1[nH]c2ncc(-c3ccc(O)cc3)nc2n1-c1ccc2cn[nH]c2c1` [Example 92, 6-(4-hydroxyphenyl)-1-(1H-indazol-6-yl)-1H-imidazo[4,5-b]pyrazin-2(3H)-one], under setting [1], the IC50 was greater than 1000 nM.

In the case of `COc1cc(OC)c(-c2cnc3[nH]c(=O)n(C4CCCC4)c3n2)c(OC)c1` [Example 94, 1-cyclopentyl-6-(2,4,6-trimethoxyphenyl)-1H-imidazo[4,5-b]pyrazin-2(3H)-one], the IC50 under setting [1] is greater than 1000 nM.

For the compound `Cc1cc(C)cc(-c2cnc3[nH]c(=O)n(-c4ccc5cn[nH]c5c4)c3n2)c1` [Example 95, 6-(3,5-dimethylphenyl)-1-(1H-indazol-6-yl)-1H-imidazo[4,5-b]pyrazin-2(3H)-one], the IC50 under setting [1] was greater than 1000 nM.

Regarding `O=c1[nH]c2ncc(-c3ccncc3)nc2n1-c1ccc2scnc2c1` [Example 98, 1-(benzo[d]thiazol-5-yl)-6-(pyridin-4-yl)-1H-imidazo[4,5-b]pyrazin-2(3H)-one], under setting [1], the IC50 is greater than 1000 nM.

Take `Cc1cc(C)cc(-c2cnc3[nH]c(=O)n(-c4ccc5scnc5c4)c3n2)c1` [Example 99, 1-(benzo[d]thiazol-5-yl)-6-(3,5-dimethylphenyl)-1H-imidazo[4,5-b]pyrazin-2(3H)-one]: under setting [1], the IC50 was greater than 1000 nM.

For the compound `O=c1[nH]c2ncc(-c3ccc(N4CCOCC4)cc3)nc2n1-c1ccc2scnc2c1` [Example 100, 1-(benzo[d]thiazol-5-yl)-6-(4-morpholinophenyl)-1H-imidazo[4,5-b]pyrazin-2(3H)-one], the IC50 under setting [1] was greater than 1000 nM.

With `COc1cc(-c2cnc3[nH]c(=O)n(C4CCc5ccccc54)c3n2)cc(OC)c1OC` (centres unmarked) [Example 101, 1-(2,3-dihydro-1H-inden-1-yl)-6-(3,4,5-trimethoxyphenyl)-1H-imidazo[4,5-b]pyrazin-2(3H)-one], the IC50 under setting [1] is greater than 1000 nM.

Take `COc1cc(-c2cnc3[nH]c(=O)n(-c4ccc5[nH]cnc5c4)c3n2)cc(OC)c1OC` [Example 102, 1-(1H-benzo[d]imidazol-5-yl)-6-(3,4,5-trimethoxyphenyl)-1H-imidazo[4,5-b]pyrazin-2(3H)-one]: the IC50 under setting [1] is less than 100 nM.

`COc1cc(-c2cnc3[nH]c(=O)n(-c4ccc(N5CCOCC5)nc4)c3n2)cc(OC)c1OC` [Example 109, 1-(6-morpholinopyridin-3-yl)-6-(3,4,5-trimethoxyphenyl)-1H-imidazo[4,5-b]pyrazin-2(3H)-one]: the IC50 under setting [1] is greater than 1000 nM.

Turning to `COc1cc(-c2cnc3[nH]c(=O)n(C4Cc5ccccc5C4)c3n2)cc(OC)c1OC` [Example 110, 1-(2,3-dihydro-1H-inden-2-yl)-6-(3,4,5-trimethoxyphenyl)-1H-imidazo[4,5-b]pyrazin-2(3H)-one], the IC50 under setting [1] was less than 100 nM.

As for `COc1cc(-c2cnc3[nH]c(=O)n(-c4cnc5[nH]ccc5c4)c3n2)cc(OC)c1OC` [Example 112, 1-(1H-pyrrolo[2,3-b]pyridin-5-yl)-6-(3,4,5-trimethoxyphenyl)-1H-imidazo[4,5-b]pyrazin-2(3H)-one], under setting [1], the IC50 is less than 100 nM.

In the case of `COc1cc(-c2cnc3[nH]c(=O)n(-c4ccc5cc[nH]c5c4)c3n2)cc(OC)c1OC` [Example 113, 1-(1H-indol-6-yl)-6-(3,4,5-trimethoxyphenyl)-1H-imidazo[4,5-b]pyrazin-2(3H)-one], the IC50 under setting [1] was less than 100 nM.

As for `Nc1ccc(-c2cnc3[nH]c(=O)n(C4CCCC4)c3n2)cn1` [Example 117, 6-(6-aminopyridin-3-yl)-1-cyclopentyl-1H-imidazo[4,5-b]pyrazin-2(3H)-one], under setting [1], the IC50 was greater than 1000 nM.

With `COc1cc(-c2cnc3[nH]c(=O)n(C4CCCC4)c3n2)ccc1N` [Example 118, 6-(4-amino-3-methoxyphenyl)-1-cyclopentyl-1H-imidazo[4,5-b]pyrazin-2(3H)-one], the IC50 lay within 100 to 1000 nM.

On to `COc1cc(-c2nc3c(nc2Cl)[nH]c(=O)n3CC2CC2)cc(OC)c1OC` [Example 119, 5-chloro-1-(cyclopropylmethyl)-6-(3,4,5-trimethoxyphenyl)-1H-imidazo[4,5-b]pyrazin-2(3H)-one], for which the IC50 under setting [1] was greater than 1000 nM.

On to `COc1cc(-c2cnc3c(c2)C(CC2CC2)C(=O)N3)cc(OC)c1OC` (centres unmarked) [Example 123, 3-(cyclopropylmethyl)-5-(3,4,5-trimethoxyphenyl)-1H-pyrrolo[2,3-b]pyridin-2(3H)-one], for which the IC50 under setting [1] lay within 100 to 1000 nM.

For the compound `COc1cc(-c2cnc3[nH]c(=O)n(CC4CC4)c3c2)cc(OC)c1OC` [Example 125, 1-(cyclopropylmethyl)-6-(3,4,5-trimethoxyphenyl)-1H-imidazo[4,5-b]pyridin-2(3H)-one], the IC50 under setting [1] was greater than 1000 nM.

Consider `COc1cc(-c2cnc3ncn(-c4ccc5[nH]ccc5c4)c3n2)cc(OC)c1OC` [Example 126, 1-(1H-indol-5-yl)-6-(3,4,5-trimethoxyphenyl)-1H-imidazo[4,5-b]pyrazine], for which the IC50 under setting [1] is greater than 1000 nM.

`COc1cc(-c2cnc3[nH]c(=S)n(CC4CC4)c3n2)cc(OC)c1OC` [Example 127, 1-(cyclopropylmethyl)-6-(3,4,5-trimethoxyphenyl)-1H-imidazo[4,5-b]pyrazine-2(3H)-thione]: under setting [1], the half-inhibitory concentration (IC50) is greater than 1000 nM.

As for `COc1cc(-c2cnc3c(c2)/C(=C\c2ccncc2)C(=O)N3)cc(OC)c1OC` [Example 129, (E)- and (Z)-3-pyridin-4-ylmethylene-5-(3,4,5-trimethoxy-phenyl)-1,3-dihydro-pyrrolo[2,3-b]pyridin-2-one], the IC50 is greater than 1000 nM.

`COc1cc(-c2cnc3c(c2)C(=Cc2ccccc2)C(=O)N3)cc(OC)c1OC` [Example 130, 3-benzylidene-5-(3,4,5-trimethoxy-phenyl)-1,3-dihydro-pyrrolo[2,3-b]pyridin-2-one]: the IC50 under setting [1] is greater than 1000 nM.

As to `COc1cc(-c2cnc3c(c2)C(=Cc2cccc(C(N)=O)c2)C(=O)N3)cc(OC)c1OC` [Example 132, 3-[2-oxo-5-(3,4,5-trimethoxy-phenyl)-1,2-dihydro-pyrrolo[2,3-b]pyridin-3-ylidenemethyl]-benzamide], the IC50 under setting [1] is greater than 1000 nM.

Regarding `COc1cc(-c2cnc3c(c2)C(=Cc2ccc(C#N)cc2)C(=O)N3)cc(OC)c1OC` [Example 133, 4-[2-oxo-5-(3,4,5-trimethoxy-phenyl)-1,2-dihydro-pyrrolo[2,3-b]pyridin-3-ylidenemethyl]-benzonitrile], the IC50 under setting [1] is greater than 1000 nM.

On to `COc1cc(-c2cnc3c(c2)C(=Cc2cccc(C#N)c2)C(=O)N3)cc(OC)c1OC` [Example 134, 3-[2-oxo-5-(3,4,5-trimethoxy-phenyl)-1,2-dihydro-pyrrolo[2,3-b]pyridin-3-ylidenemethyl]-benzonitrile], for which the IC50 under setting [1] was greater than 1000 nM.

The values are drawn from patent US10485800B2, “Mixed lineage kinase inhibitors for HIV/AIDS therapies” (UNIVERSITY OF ROCHESTER, priority 2012, dated 2019).
